According to US6458764B1, “GRF analogs with increased biological potency” (Theratechnologies Inc., priority 1995, dated 2002):
Where no end group is shown, it is not given here. The star is where a group is joined. Hexanoyl = CCCCCC(=O)*

Tests used:
serum IGF-I [1] = test: Comparative effects of GRF analogs on IGF-I levels in pigs (Example II, D-IGF-I, FIG. 1); assay type: in vivo, pigs (Landrace x Yorkshire); conditions: 20 μg/kg 2×/day S.C., days 1 to 5, n=8 pigs per group
Description: This was a 5-day treatment, twice a day S.C. administration of one single dose of each test article vs saline. This experiment was conducted to compare the efficacy of (Aminohexanoyl)0 hGRF (1-29) NH2, (Hexylformiate)0 hGRF (1-29) NH2, (Hexenoyl trans-2)0 hGRF (1-29) NH2, (Hexenoyl trans-3)0 hGRF (1-29) NH2 and (Muconoyl)0 hGRF (1-29) NH2 to that of(Hexanoyl)0 hGRF (1-29) NH2.
ADMINISTRATION: Two daily subcutaneous injections.
TEST SYSTEM: Landrace x Yorkshire pigs.
ANIMAL DESCRIPTION: Fifty six (56) growing barrows pigs weighing 35 kg at the time of purchase.
DESIGN: Fifty six (56) pigs were randomly distributed into 7 experimental groups (n=8 pigs per group). Each group received two daily S.C. administration of the following treatments (volume: 3 ml, S.C. injection).
Treatments were administered from day 1 to 5. Immediately before the injections, one blood sample were collected from each animal, and additional blood samples were collected on day 6.
Blood samples were allowed to clot, serum was harvested by centrifugation and submitted to IGF-I assays.
Results are shown in FIG. 1 as D-IGF-I, which is defined as the increase in IGF-I levels from day 1 (pretreatment levels) to day 6 (after 5 days of GRFs administrations).

serum IGF-I [2] = test: Repeated S.C. administrations of GRF analogs, serum IGF-I levels in pigs (Example I, Experiments 1-3; radioimmunoassay); assay type: in vivo, pigs (Landrace x Yorkshire); conditions: for serum IGF-I, Day 1 (pretreatment): pretreatment baseline; for increase in IGF-I levels: P<0.05
Description: The objective of these experiments was to assess the potential of the GRF analogs as anabolic agents.
Therefore, in order to investigate the anabolic potency of the fatty acid-GRF analogs, their ability to increase IGF-I levels following repeated S.C. administrations in pig was evaluated.
26 Landrace x Yorkshire castrated male pigs (40-45 kg BW) were randomly distributed into 4 experimental groups:
Each animal was injected BID (twice a day) subcutaneously for 4 consecutive days. One blood sample was collected each morning prior to the first injection of the day, and the day after the last injection, for IGF-I measurement.
40 Landrace x Yorkshire castrated male pigs (40-45 kg BW) were randomly distributed into 5 experimental groups:
(§1) Each animal was injected BID (twice a day) subcutaneously for 5 consecutive days. One blood sample was collected each morning prior to the first injection of the day, and the day after the last injection, for IGF-I measurement.
48 Landrace x Yorkshire castrated male pigs (40-45 kg BW) were randomly distributed into 6 experimental groups:
as §1, with “The selected doses were 30 μg/kg for hGRF(1-44)NH2 analogs and 20 μg/kg for hGRF(1-29)NH2 analogs, which give identical doses on a molar basis. Each” for “Each”, “measurements.” for “measurement.”
IGF-I levels were measured in pig serum by double antibody radioimmunoassay after formic acid-acetone extraction, as previously described (Abribat T. et al., 1993, J. Endocrinol., 39:583-589). The extraction prior to radioimmunoassay is a necessary step to remove endogenous IGF-binding proteins.
In both experiments, the IGF-I data were analyzed by a two way repeated measure analysis of variance, with day and treatment (GRF analog) as sources of variation. Multiple comparison procedures were there run (Student-Newman Keuls method). A P<0.05 was considered as statistically significant.

[3] = Experiment 1, 20 μg/kg BID SC × 4 days, mean of 6 to 7
[4] = Experiment 3, 20 μg/kg BID SC × 5 days, mean of 8
[5] = Experiment 3, 30 μg/kg BID SC × 5 days, mean of 8

In the case of “(Aminohexanoyl)0 hGRF (1-29) NH2 (aminohexanoyl-YADAIFTNSYRKVLGQLSARKLLQDIMSR-NH2; UniProt P01286 32-60, looked up, fragment) [aminohexanoyl-hGRF(1-29)NH2]”, the “D-IGF-I: increase in IGF-I levels from day 1 (pretreatment) to day 6” value (shortened to “D-IGF-I: increase in IGF-I levels”) (serum IGF-I [1]) is reported as “did not”.

“(Hexenoyl trans-2)0 hGRF (1-29) NH2 ({trans‑2‑hexenoyl}-YADAIFTNSYRKVLGQLSARKLLQDIMSR-NH2; UniProt P01286 32-60, looked up, fragment) [hexenoyl trans2-hGRF(1-29)NH2]” was tested, and the “D-IGF-I: increase in IGF-I levels” value (serum IGF-I [1]) was “significantly increased IGF-I levels”.

With “(Hexylformiate)0 hGRF (1-29) NH2 (hexylformiate-YADAIFTNSYRKVLGQLSARKLLQDIMSR-NH2; UniProt P01286 32-60, looked up, fragment) [hexylformiate-hGRF(1-29)NH2]” the “D-IGF-I: increase in IGF-I levels” value (serum IGF-I [1]) was “significantly increased IGF-I levels”.

With “(Muconoyl)0 hGRF (1-29) NH2 (muconoyl-YADAIFTNSYRKVLGQLSARKLLQDIMSR-NH2; UniProt P01286 32-60, looked up, fragment) [muconoyl-hGRF(1-29)NH2]” the “D-IGF-I: increase in IGF-I levels” value (serum IGF-I [1]) was “did not”.

In the case of “[butyryl^0] hGRF(1-29)NH2 (YADAIFTNSYRKVLGQLSARKLLQDIMSR; HELM PEPTIDE1{[CCCC(=O)[*:2]].Y.A.D.A.I.F.T.N.S.Y.R.K.V.L.G.Q.L.S.A.R.K.L.L.Q.D.I.M.S.R.[am]}$$$$V2.0; SMILES CCCC(=O)N[C@@H](Cc1ccc(O)cc1)C(=O)N[C@@H](C)C(=O)N[C@@H](CC(=O)O)C(=O)N[C@@H](C)C(=O)N[C@H](C(=O)N[C@@H](Cc1ccccc1)C(=O)N[C@H](C(=O)N[C@@H](CC(N)=O)C(=O)N[C@@H](CO)C(=O)N[C@@H](Cc1ccc(O)cc1)C(=O)N[C@@H](CCCNC(=N)N)C(=O)N[C@@H](CCCCN)C(=O)N[C@H](C(=O)N[C@@H](CC(C)C)C(=O)NCC(=O)N[C@@H](CCC(N)=O)C(=O)N[C@@H](CC(C)C)C(=O)N[C@@H](CO)C(=O)N[C@@H](C)C(=O)N[C@@H](CCCNC(=N)N)C(=O)N[C@@H](CCCCN)C(=O)N[C@@H](CC(C)C)C(=O)N[C@@H](CC(C)C)C(=O)N[C@@H](CCC(N)=O)C(=O)N[C@@H](CC(=O)O)C(=O)N[C@H](C(=O)N[C@@H](CCSC)C(=O)N[C@@H](CO)C(=O)N[C@@H](CCCNC(=N)N)C(N)=O)[C@@H](C)CC)C(C)C)[C@@H](C)O)[C@@H](C)CC; UniProt P01286 32-60, looked up, fragment)”, the “serum IGF-I, Day 2” value (serum IGF-I [2]; [3]) is reported as 281 ng/mL, the “serum IGF-I, Day 3” value (serum IGF-I [2]; [3]) is reported as 302 ng/mL and the “serum IGF-I, Day 4” value (serum IGF-I [2]; [3]) is reported as 289 ng/mL. The “serum IGF-I, Day 5” value (serum IGF-I [2]; [3]) was 293 ng/mL and the “serum IGF-I, Day 1 (pretreatment)” value (serum IGF-I [2]; [3]) was 278 ng/mL.

With “[hexanoyl^0, 30]hGRF(1-29)NH2 (Hexanoyl-YADAIFTNSYRKVLGQLSARKLLQDIMSR-NH2; also: hexanoyl at position 30; UniProt P01286 32-60, looked up, fragment) [[hexanoyl^0,30] hGRF(1-29)NH2]” the “serum IGF-I, Day 2” value (serum IGF-I [2]; [4]) was 212 ng/mL, the “serum IGF-I, Day 3” value (serum IGF-I [2]; [4]) was 253 ng/mL and the “serum IGF-I, Day 4” value (serum IGF-I [2]; [4]) was 271 ng/mL. For the same substance, the “serum IGF-I, Day 5” value (serum IGF-I [2]; [4]) was 277 ng/mL, the “serum IGF-I, Day 6” value (serum IGF-I [2]; [4]) was 294 ng/mL and the “serum IGF-I, Day 1 (pretreatment)” value (serum IGF-I [2]; [4]) was 205 ng/mL. For the same substance, the “increase in IGF-I levels” value (serum IGF-I [2]; Experiment 3, 20 μg/kg BID SC, day 4) was 32%, the “increase in IGF-I levels” value (serum IGF-I [2]; Experiment 3, 20 μg/kg BID SC, day 5) was 35% and the “increase in IGF-I levels” value (serum IGF-I [2]; Experiment 3, 20 μg/kg BID SC, day 6) was 43%.

With “[hexanoyl^0]hGRF(1-44)NH2 (Hexanoyl-YADAIFTNSYRKVLGQLSARKLLQDIMSRQQGESNQERGARARL-NH2; UniProt P01286 32-75, looked up) [[hexanoyl^0] hGRF(1-44)NH2]” the “serum IGF-I, Day 2” value (serum IGF-I [2]; [5]) was 290 ng/mL, the “serum IGF-I, Day 3” value (serum IGF-I [2]; [5]) was 340 ng/mL and the “serum IGF-I, Day 4” value (serum IGF-I [2]; [5]) was 372 ng/mL. For the same substance, the “serum IGF-I, Day 5” value (serum IGF-I [2]; [5]) was 361 ng/mL, the “serum IGF-I, Day 6” value (serum IGF-I [2]; [5]) was 388 ng/mL and the “serum IGF-I, Day 1 (pretreatment)” value (serum IGF-I [2]; [5]) was 241 ng/mL. The “increase in IGF-I levels” value (serum IGF-I [2]; Experiment 3, 30 μg/kg BID SC, day 3) was 41%, the “increase in IGF-I levels” value (serum IGF-I [2]; Experiment 3, 30 μg/kg BID SC, day 4) was 54% and the “increase in IGF-I levels” value (serum IGF-I [2]; Experiment 3, 30 μg/kg BID SC, day 5) was 50%. For the same substance, the “increase in IGF-I levels” value (serum IGF-I [2]; Experiment 3, 30 μg/kg BID SC, day 6) was 61%.

With “[hexanoyl^30]hGRF(1-29)NH2 (YADAIFTNSYRKVLGQLSARKLLQDIMSR-NH2; also: hexanoyl at position 30; UniProt P01286 32-60, looked up, fragment) [[hexanoyl^30] hGRF(1-29)NH2, hexanoyl function anchored at the C-terminal region of hGRF(1-29)NH2]” the “serum IGF-I, Day 2” value (serum IGF-I [2]; [4]) was 270 ng/mL, the “serum IGF-I, Day 3” value (serum IGF-I [2]; [4]) was 287 ng/mL and the “serum IGF-I, Day 4” value (serum IGF-I [2]; [4]) was 278 ng/mL. The “serum IGF-I, Day 5” value (serum IGF-I [2]; [4]) was 276 ng/mL, the “serum IGF-I, Day 6” value (serum IGF-I [2]; [4]) was 327 ng/mL and the “serum IGF-I, Day 1 (pretreatment)” value (serum IGF-I [2]; [4]) was 297 ng/mL.

“[octanoyl^0] hGRF(1-29)NH2 (YADAIFTNSYRKVLGQLSARKLLQDIMSR; HELM PEPTIDE1{[CCCCCCCC(=O)[*:2]].Y.A.D.A.I.F.T.N.S.Y.R.K.V.L.G.Q.L.S.A.R.K.L.L.Q.D.I.M.S.R.[am]}$$$$V2.0; SMILES CCCCCCCC(=O)N[C@@H](Cc1ccc(O)cc1)C(=O)N[C@@H](C)C(=O)N[C@@H](CC(=O)O)C(=O)N[C@@H](C)C(=O)N[C@H](C(=O)N[C@@H](Cc1ccccc1)C(=O)N[C@H](C(=O)N[C@@H](CC(N)=O)C(=O)N[C@@H](CO)C(=O)N[C@@H](Cc1ccc(O)cc1)C(=O)N[C@@H](CCCNC(=N)N)C(=O)N[C@@H](CCCCN)C(=O)N[C@H](C(=O)N[C@@H](CC(C)C)C(=O)NCC(=O)N[C@@H](CCC(N)=O)C(=O)N[C@@H](CC(C)C)C(=O)N[C@@H](CO)C(=O)N[C@@H](C)C(=O)N[C@@H](CCCNC(=N)N)C(=O)N[C@@H](CCCCN)C(=O)N[C@@H](CC(C)C)C(=O)N[C@@H](CC(C)C)C(=O)N[C@@H](CCC(N)=O)C(=O)N[C@@H](CC(=O)O)C(=O)N[C@H](C(=O)N[C@@H](CCSC)C(=O)N[C@@H](CO)C(=O)N[C@@H](CCCNC(=N)N)C(N)=O)[C@@H](C)CC)C(C)C)[C@@H](C)O)[C@@H](C)CC; UniProt P01286 32-60, looked up, fragment)” was tested, and the “serum IGF-I, Day 2” value (serum IGF-I [2]; [3]) was 287 ng/mL, the “serum IGF-I, Day 3” value (serum IGF-I [2]; [3]) was 301 ng/mL and the “serum IGF-I, Day 4” value (serum IGF-I [2]; [3]) was 301 ng/mL. The “serum IGF-I, Day 5” value (serum IGF-I [2]; [3]) was 318 ng/mL and the “serum IGF-I, Day 1 (pretreatment)” value (serum IGF-I [2]; [3]) was 316 ng/mL.
